Assay results published in patent US20080287546A1, “Quorum Sensing Modulators” (priority 2005, published 2008).

How the values were obtained:
[1] = system: LasR dependent quorum sensing controlled promoter, prsaL (reporter strain MW1.pUM15); assay: Signal Reception Assay (SRA), activation of the reporter in the absence of an activating signal; type: cell-based, Pseudomonas aeruginosa; details: for activation of the reporter (agonist activity): compound at 100 μM, absence of an activating signal, SRA, MW1.pUM15
Description: (§1) The CSA yields a fluorescent signal reporting both signal synthesis and signal reception. The SRA yields a fluorescent signal due to signal reception. Compounds affecting signal reception can be detected by SRA. The SRA can detect compounds that modulate quorum sensing by inhibiting signal reception or activating signal reception. Inhibitor compounds are identified by performing the SRA with exogenous autoinducer at a concentration of half maximal activation and detecting changes in fluorescence indicative of inhibition of signal reception. Activator compounds are identified by performing the SRA in the absence of exogenous autoinducer.
The plasmid pUM15 carries a YFP reporter under control of a LasR dependent quorum sensing controlled promoter, prsaL. When the plasmid is harbored by MW1, a strain lacking the ability to produce acylated homoserine lactones, the reporter is induced only in the presence of exogenous autoinducer. This is referred to as the Signal Reception Assay, as only those compounds that modulate signal reception will be detected.
Cells were grown in LB with 50 mM 3-(N-morpholino)propanesulfonic acid (MOPS) pH 7.0, 300 μg/mL carbenicillin. A single colony of MW1.pUM15 from a freshly struck plate was used to inoculate a starter culture and grown shaking at 30° C. not above an absorbance at 600 nm (A600) of 1.5. Cells were subcultured to A600 of 0.05 and grown shaking at 37° C. for 1-2 h. These mid-logarithmic cells were then added to dried down 3-oxo-C12-HSL to result in a final concentration of 0.3 μM. Induced cells were pipetted into wells containing the test compound. Uninduced cells were included as a control for the assay window. When the assay was used to characterize a potential activator, no homoserine lactone was added.
Nanoplate format: Assay reagents were dispensed with the flying reagent dispenser, FRD (Vertex Pharmaceuticals Incorporated, San Diego, Calif.). An aliquot of 1.5 μL reporter culture was added to wells in 3,456-well plates (3456 plates) and grown for 8-12 h before reading fluorescence with the topography-compensating plate reader, tcPR (Vertex Pharmaceuticals Incorporated, San Diego, Calif.). DR96 format: an aliquot of 50 μL culture was added to 96 well plate and grown for 6-8 h. Fluorescence was read with a SpectroFluor Plus plate reader (Tecan US, Durham, N.C.).
In all formats, plates were sealed in a humidified container and incubated staticly at 37° C. Fluorescence measurements were made with an excitation wavelength of 485 nm and emission wavelength of […]. To evaluate growth in the presence of test compound, the absorbance at 620 nm was also recorded.
The compounds in Table 2 were purchased from Chembridge Corp. (San Diego, Calif.), Specs (Wakefield, R.I.), Interbioscreen Ltd. (Moscow, Russia) and Chemical Diversity Labs, Inc. (San Diego, Calif.), and were characterized with the reporter strain MW1.pUM15 in both microtiter plate format and a shaking tube format. […] The tube format was performed to eliminate plate effects that may mask low levels of inhibition.
In both formats, the compounds were tested for (1) activation of the reporter in the absence of an activating signal, and (2) inhibition of the reporter in the presence of 0.3 μM 3-oxo-C12-HSL. All compounds were tested at 100 μM for their ability to activate or inhibit quorum sensing using the SRA assay. […]

[2] = system: LasR dependent quorum sensing controlled promoter, prsaL (reporter strain MW1.pUM15); assay: Signal Reception Assay (SRA), inhibition of the reporter in the presence of 0.3 μM 3-oxo-C12-HSL; type: cell-based, Pseudomonas aeruginosa; details: compound at 100 μM
Description: as §1
The plasmid pUM15 carries a YFP reporter under control of a LasR dependent quorum sensing controlled promoter, prsaL. […] This is referred to as the Signal Reception Assay, as only those compounds that modulate signal reception will be detected.
Cells were grown in LB with 50 mM 3-(N-morpholino)propanesulfonic acid (MOPS) pH 7.0, 300 μg/mL carbenicillin. A single colony of MW1.pUM15 from a freshly struck plate was used to inoculate a starter culture and grown shaking at 30° C. not above an absorbance at 600 nm (A600) of 1.5. […]
Nanoplate format: Assay reagents were dispensed with the flying reagent dispenser, FRD (Vertex Pharmaceuticals Incorporated, San Diego, Calif.). […] Fluorescence was read with a SpectroFluor Plus plate reader (Tecan US, Durham, N.C.). […]

SMILES	activation of the reporter (agonist activity) [1]	inhibition of the reporter (antagonist activity) [2]	activation efficacy (FIG. 2), compared with 3-oxo-C12-HSL ([1]; fluorescence in the SRA as a function of concentration, in the presence of 0.75% DMSO)
O=C(Oc1c(Br)cc(Br)cc1CNC(=O)c1ccccc1Cl)c1ccc(F)cc1 [Compound 2]	activating effects	–	–
Cc1ccccc1C(=O)Oc1c(Br)cc(Br)cc1CNC(=O)c1ccccc1Cl [Compound 3]	activating effects	–	–
O=C(Nc1ccccc1NC(=O)c1cccc(Cl)c1)c1cccc(Cl)c1 [Compound 1]	–	largest degree of inhibition	–
O=C(NCc1cc(Br)cc(Br)c1OC(=O)c1ccccc1[N+](=O)[O-])c1ccccc1Cl [Compound 5]	activating effects	–	an activating effect equal to 3-oxo-C12-HSL but at reduced concentrations
Cc1cc(C)c(OC(=O)c2ccc(Cl)cc2Cl)c(CNC(=O)c2ccccc2Cl)c1 [Compound 4]	activating effects	–	–
